Experimental data from the NIST ThermoML archive (doi:10.1016/j.jct.2014.05.016).

Assay: xn = mol fraction of the nth substance listed
Details: 100 kPa, Liquid; for mass density: Vibrating tube method; for viscosity: Concentric cylinders viscometry

CCCC[n+]1ccccc1.F[B-](F)(F)F [1-butylpyridinium tetrafluoroborate] + CCCCn1cc[n+](C)c1.F[B-](F)(F)F
Details | mass density [kg/m3] | viscosity [mPa·s]
318.15 K, x2 = 0 | 1199.4 | –
318.15 K, x2 = 0.1007 | 1198.1 | –
318.15 K, x2 = 0.2004 | 1197 | –
318.15 K, x2 = 0.3001 | 1195.7 | –
318.15 K, x2 = 0.4004 | 1194.4 | –
318.15 K, x2 = 0.5009 | 1193.1 | –
318.15 K, x2 = 0.6004 | 1191.8 | –
318.15 K, x2 = 0.7013 | 1190.6 | –
318.15 K, x2 = 0.8007 | 1189.1 | –
318.15 K, x2 = 0.8987 | 1187.8 | –
323.15 K, x2 = 0 | 1196 | 47.29
323.15 K, x2 = 0.1007 | 1194.7 | –
323.15 K, x2 = 0.1009 | – | 46.21
323.15 K, x2 = 0.2004 | 1193.5 | –
323.15 K, x2 = 0.2005 | – | 44.95
323.15 K, x2 = 0.3001 | 1192.3 | –
323.15 K, x2 = 0.3003 | – | 43.7
323.15 K, x2 = 0.4001 | – | 42.46
323.15 K, x2 = 0.4004 | 1190.9 | –
323.15 K, x2 = 0.4999 | – | 41.32
323.15 K, x2 = 0.5009 | 1189.6 | –
323.15 K, x2 = 0.6004 | 1188.3 | –
323.15 K, x2 = 0.6007 | – | 40.18
323.15 K, x2 = 0.7004 | – | 39.01
323.15 K, x2 = 0.7013 | 1187 | –
323.15 K, x2 = 0.8001 | – | 37.96
323.15 K, x2 = 0.8007 | 1185.6 | –
323.15 K, x2 = 0.8987 | 1184.3 | –
323.15 K, x2 = 0.8998 | – | 36.87
328.15 K, x2 = 0 | 1192.6 | 38.71
328.15 K, x2 = 0.1007 | 1191.3 | –
328.15 K, x2 = 0.1009 | – | 37.89
328.15 K, x2 = 0.2004 | 1190.1 | –
328.15 K, x2 = 0.2005 | – | 36.94
328.15 K, x2 = 0.3001 | 1188.8 | –
328.15 K, x2 = 0.3003 | – | 36
328.15 K, x2 = 0.4001 | – | 35.04
328.15 K, x2 = 0.4004 | 1187.5 | –
328.15 K, x2 = 0.4999 | – | 34.16
328.15 K, x2 = 0.5009 | 1186.2 | –
328.15 K, x2 = 0.6004 | 1184.9 | –
328.15 K, x2 = 0.6007 | – | 33.29
328.15 K, x2 = 0.7004 | – | 32.42
328.15 K, x2 = 0.7013 | 1183.5 | –
328.15 K, x2 = 0.8001 | – | 31.6
328.15 K, x2 = 0.8007 | 1182.1 | –
328.15 K, x2 = 0.8987 | 1180.8 | –
328.15 K, x2 = 0.8998 | – | 30.76
333.15 K, x2 = 0 | 1189.2 | 32.12
333.15 K, x2 = 0.1007 | 1188 | –
333.15 K, x2 = 0.1009 | – | 31.48
333.15 K, x2 = 0.2004 | 1186.7 | –
333.15 K, x2 = 0.2005 | – | 30.81
333.15 K, x2 = 0.3001 | 1185.4 | –
333.15 K, x2 = 0.3003 | – | 30.05
333.15 K, x2 = 0.4001 | – | 29.3
333.15 K, x2 = 0.4004 | 1184 | –
333.15 K, x2 = 0.4999 | – | 28.66
333.15 K, x2 = 0.5009 | 1182.7 | –
333.15 K, x2 = 0.6004 | 1181.4 | –
333.15 K, x2 = 0.6007 | – | 27.94
333.15 K, x2 = 0.7004 | – | 27.27
333.15 K, x2 = 0.7013 | 1180 | –
333.15 K, x2 = 0.8001 | – | 26.68
333.15 K, x2 = 0.8007 | 1178.6 | –
333.15 K, x2 = 0.8987 | 1177.3 | –
333.15 K, x2 = 0.8998 | – | 26.05
338.15 K, x2 = 0 | 1185.8 | 26.98
338.15 K, x2 = 0.1007 | 1184.6 | –
338.15 K, x2 = 0.1009 | – | 26.47
338.15 K, x2 = 0.2004 | 1183.3 | –
338.15 K, x2 = 0.2005 | – | 25.93
338.15 K, x2 = 0.3001 | 1182 | –
338.15 K, x2 = 0.3003 | – | 25.37
338.15 K, x2 = 0.4001 | – | 24.83
338.15 K, x2 = 0.4004 | 1180.6 | –
338.15 K, x2 = 0.4999 | – | 24.25
338.15 K, x2 = 0.5009 | 1179.3 | –
338.15 K, x2 = 0.6004 | 1178 | –
338.15 K, x2 = 0.6007 | – | 23.7
338.15 K, x2 = 0.7004 | – | 23.18
338.15 K, x2 = 0.7013 | 1176.6 | –
338.15 K, x2 = 0.8001 | – | 22.68
338.15 K, x2 = 0.8007 | 1175.2 | –
338.15 K, x2 = 0.8987 | 1173.9 | –
338.15 K, x2 = 0.8998 | – | 22.23
343.15 K, x2 = 0 | 1182.5 | 22.97
343.15 K, x2 = 0.1007 | 1181.2 | –
343.15 K, x2 = 0.1009 | – | 22.54
343.15 K, x2 = 0.2004 | 1179.9 | –
343.15 K, x2 = 0.2005 | – | 22.07
343.15 K, x2 = 0.3001 | 1178.6 | –
343.15 K, x2 = 0.3003 | – | 21.64
343.15 K, x2 = 0.4001 | – | 21.16
343.15 K, x2 = 0.4004 | 1177.3 | –
343.15 K, x2 = 0.4999 | – | 20.75
343.15 K, x2 = 0.5009 | 1175.9 | –
343.15 K, x2 = 0.6004 | 1174.5 | –
343.15 K, x2 = 0.6007 | – | 20.32
343.15 K, x2 = 0.7004 | – | 19.9
343.15 K, x2 = 0.7013 | 1173.2 | –
343.15 K, x2 = 0.8001 | – | 19.49
343.15 K, x2 = 0.8007 | 1171.8 | –
343.15 K, x2 = 0.8987 | 1170.4 | –
343.15 K, x2 = 0.8998 | – | 19.09
